Experimental data: US9695155B2, “Herbicidal substituted pyrimidinyloxy benzene compounds” (E. I. DU PONT DE NEMOURS AND COMPANY, priority 2013, dated 2017)

Columns and labels:
Test in all cases: Test F preemergence
Conditions in all cases: 21 days, scale 0 to 100
mustard, black = type: in vivo, Brassica nigra
From the text: (§1) Seeds of plant species selected from bermudagrass (Cynodon dactylon), surinam grass (Brachiaria decumbens), large (Lg) crabgrass (Digitaria sanguinalis), crabgrass, naked (naked crabgrass, Digitaria nuda), foxtail, green (green foxtail, Setaria viridis), johnsongrass (Sorghum halepense), kochia (Kochia scoparia), morningglory (pitted morningglory, Ipomoea lacunosa), nutsedge, purple (purple nutsedge, Cyperus rotundus), ragweed (common ragweed, Ambrosia elatior), mustard, black (black mustard, Brassica nigra), guineagrass (Panicum maximum), dallisgrass (Paspalum dilatatum), barnyardgrass (Echinochloa crus-galli), sandbur (southern sandbur, Cenchrus echinatus), sowthistle (common sowthistle, Sonchus oleraceous), Italian ryegrass (Lolium multiflorum), signalgrass (broadleaf signalgrass, Brachiaria platyphylla), dayflower (Virginia (VA) dayflower, Commelina virginica), bluegrass (annual bluegrass, Poa annua), quackgrass (Elytrigia repens), mallow (common mallow, Malva sylvestris), buckwheat, wild (wild buckwheat, Polygonum convolvulus), leafy spurge (Euphorbia esula), chickweed (common chickweed, Stellaria media), wild poinsettia (Euphorbia heterophylla), and pigweed (Amaranthus retroflexus) were planted into a blend of loam soil and sand and treated preemergence with test chemicals formulated in a non-phytotoxic solvent mixture which included a surfactant.
(§2) Treated plants and controls were maintained in a greenhouse for 21 days, after which time all species were compared to controls and visually evaluated. Plant response ratings, summarized in Table F, are based on a scale of 0 to 100 where 0 is no effect and 100 is complete control. A dash (-) response means no test result.

quackgrass = type: in vivo, Elytrigia repens
From the text: as §1, §2

wild poinsettia = type: in vivo, Euphorbia heterophylla
From the text: as §1, §2

kochia = type: in vivo, Kochia scoparia
From the text: as §1, §2

buckwheat, wild = type: in vivo, Polygonum convolvulus
From the text: as §1, §2

N#Cc1cccc(Oc2ncc(F)cn2)c1-n1cc(C(F)(F)F)cn1 [Compound 79, 3-[(5-fluoro-2-pyrimidinyl)oxy]-2-[4-(trifluoromethyl)-1H-pyrazol-1-yl]benzonitrile]
Plant response rating, Mustard, Black (mustard, black; 16 g ai/ha): 100 | Plant response rating, Mustard, Black (mustard, black; 31 g ai/ha): 100 | Plant response rating, Mustard, Black (mustard, black; 62 g ai/ha): 100 | Plant response rating, Mustard, Black (mustard, black; 125 g ai/ha): 100 | Plant response rating, Mustard, Black (mustard, black; 250 g ai/ha): 100 | Plant response rating, Quackgrass (quackgrass; 16 g ai/ha): 40 | Plant response rating, Quackgrass (quackgrass; 31 g ai/ha): 70 | Plant response rating, Quackgrass (quackgrass; 62 g ai/ha): 95 | Plant response rating, Quackgrass (quackgrass; 125 g ai/ha): 98 | Plant response rating, Quackgrass (quackgrass; 250 g ai/ha): 100 | Plant response rating, Poinsettia, Wild (wild poinsettia; 16 g ai/ha): 50 | Plant response rating, Poinsettia, Wild (wild poinsettia; 31 g ai/ha): 85 | Plant response rating, Poinsettia, Wild (wild poinsettia; 62 g ai/ha): 98 | Plant response rating, Poinsettia, Wild (wild poinsettia; 125 g ai/ha): 100 | Plant response rating, Poinsettia, Wild (wild poinsettia; 250 g ai/ha): 100 | Plant response rating, Kochia (kochia; 16 g ai/ha): 100 | Plant response rating, Kochia (kochia; 31 g ai/ha): 100 | Plant response rating, Kochia (kochia; 62 g ai/ha): 100 | Plant response rating, Kochia (kochia; 125 g ai/ha): 100 | Plant response rating, Kochia (kochia; 250 g ai/ha): 100 | Plant response rating, Buckwheat, Wild (buckwheat, wild; 16 g ai/ha): 98 | Plant response rating, Buckwheat, Wild (buckwheat, wild; 31 g ai/ha): 100 | Plant response rating, Buckwheat, Wild (buckwheat, wild; 62 g ai/ha): 100 | Plant response rating, Buckwheat, Wild (buckwheat, wild; 125 g ai/ha): 100 | Plant response rating, Buckwheat, Wild (buckwheat, wild; 250 g ai/ha): 100

N#Cc1cccc(Oc2ncc(Cl)cn2)c1-n1cc(OC(F)F)cn1 [Compound 97]
Plant response rating, Mustard, Black (mustard, black; 16 g ai/ha): 90 | Plant response rating, Mustard, Black (mustard, black; 31 g ai/ha): 100 | Plant response rating, Mustard, Black (mustard, black; 62 g ai/ha): 100 | Plant response rating, Mustard, Black (mustard, black; 125 g ai/ha): 100 | Plant response rating, Mustard, Black (mustard, black; 250 g ai/ha): 100 | Plant response rating, Quackgrass (quackgrass; 16 g ai/ha): 0 | Plant response rating, Quackgrass (quackgrass; 31 g ai/ha): 35 | Plant response rating, Quackgrass (quackgrass; 62 g ai/ha): 50 | Plant response rating, Quackgrass (quackgrass; 125 g ai/ha): 95 | Plant response rating, Quackgrass (quackgrass; 250 g ai/ha): 100 | Plant response rating, Poinsettia, Wild (wild poinsettia; 16 g ai/ha): 10 | Plant response rating, Poinsettia, Wild (wild poinsettia; 31 g ai/ha): 20 | Plant response rating, Poinsettia, Wild (wild poinsettia; 62 g ai/ha): 75 | Plant response rating, Poinsettia, Wild (wild poinsettia; 125 g ai/ha): 98 | Plant response rating, Poinsettia, Wild (wild poinsettia; 250 g ai/ha): 98 | Plant response rating, Kochia (kochia; 16 g ai/ha): 100 | Plant response rating, Kochia (kochia; 31 g ai/ha): 100 | Plant response rating, Kochia (kochia; 62 g ai/ha): 100 | Plant response rating, Kochia (kochia; 125 g ai/ha): 100 | Plant response rating, Kochia (kochia; 250 g ai/ha): 100 | Plant response rating, Buckwheat, Wild (buckwheat, wild; 16 g ai/ha): 85 | Plant response rating, Buckwheat, Wild (buckwheat, wild; 31 g ai/ha): 100 | Plant response rating, Buckwheat, Wild (buckwheat, wild; 62 g ai/ha): 100 | Plant response rating, Buckwheat, Wild (buckwheat, wild; 125 g ai/ha): 100 | Plant response rating, Buckwheat, Wild (buckwheat, wild; 250 g ai/ha): 100
